The target of one test is TAF1-BD1 (Homo sapiens, UniProt P21675). Kind of test: TAF1-BD1 TR-FRET Binding Assay. The conditions noted are these: read-out: TAF1-BD1 HTRF IC50. The protocol: IC50 Measurements for Inhibitors Using TAF1-BD1 TR-FRET Binding Assay
His/Flag epitope tagged TAF1-BD11381-1497 was cloned, expressed, and purified to homogeneity. TAF1-BD binding and inhibition was assessed by monitoring the engagement of a biotinylated small molecule compound 1000 with the target using the TR-FRET assay technology (Perkin-Elmer). Specifically, in a 384 well ProxiPlate, TAF1-BDI (0.08 uM final) in 50 mM HEPES (pH 7.5; final), 50 mM NaCl (final), 1 mM TCEP (final), 0.1 mg/mL BSA (final), and 0.069 mM Brij-35 (final) was added either in the presence of DMSO (final 0.2% DMSO) or compound dilution series in DMSO. After a 10 minute incubation at room temperature, biotin-ligand (0.08 uM final) was added. After 10 minutes incubation at room temperature, a mixture Eu-W1024 Anti-6×His antibody (Perkin Elmer ADO 110) and SureLight™ Streptavidin-Allophycocyanin (SA-APC, Perkin Elmer CR130-100) were added to final concentrations of 0.2 nM antibody and 0.05 uM SA-APC, respectively. After forty minutes of equilibration at room temperature, the plates were read on an Envision instrument and IC50s calculated using a four parameter logistic model (XLFIT).
(TR-FRET usually uses a lanthanide donor and a delayed reading to cut background.)

In a further test the target is TAF1-BD2 (Homo sapiens, UniProt P21675). Kind of test: TAF1-BD2 TR-FRET Binding Assay. The conditions noted are these: read-out: TAF1-BD2 HTRF IC50. Here is the method: IC50 Measurements for Inhibitors Using TAF1-BD2 TR-FRET Binding Assay
His/Flag epitope tagged TAF1-BD21504-1635 was cloned, expressed, and purified to homogeneity. TAF1-BD2 binding and inhibition was assessed by monitoring the engagement of a biotinylated small molecule compound 1000 with the target using the TR-FRET assay technology (Perkin-Elmer). Specifically, in a 384 well ProxiPlate, TAF1-BD2 (0.012 uM final) in 50 mM HEPES (pH 7.5; final), 50 mM NaCl (final), 1 mM TCEP (final), 0.1 mg/mL BSA (final), and 0.069 mM Brij-35 (final) was added either in the presence of DMSO (final 0.2% DMSO) or compound dilution series in DMSO. After a 10 minute incubation at room temperature, biotin-ligand (0.04 uM final) was added. After 10 minutes incubation at room temperature, a mixture Eu-W1024 Anti-6×His antibody (Perkin Elmer AD0110) and SureLight™ Streptavidin-Allophycocyanin (SA-APC, Perkin Elmer CR130-100) were added to a final concentration of 0.2 nM antibody and 0.025 uM SA-APC, respectively. After forty minutes of equilibration at room temperature, the plates were read on an Envision instrument and IC50s calculated using a four parameter logistic model (XLFIT).

The IC50 is the point on the concentration scale where inhibition reaches its midpoint. For `CCOC(=O)c1c(C)[nH]c2c(=O)n(C)cc(C#CC(C)(C)OCc3ccccc3)c12` [Example 25, ethyl 4-(3-benzyloxy-3-methyl-but-1-ynyl)-2,6-dimethyl-7-oxo-1H-pyrrolo[2,3-c]pyridine-3-carboxylate], the IC50 on TAF1-BD1 amounted to 848 nM; at TAF1-BD2, 373 nM.
For the molecule `Cc1[nH]c2c(=O)n(C)cc(C#CC(C)(O)C3CC3)c2c1C1=NCC(C)(C)O1` (stereo not shown) [Example 204, 4-(3-cyclopropyl-3-hydroxy-but-1-ynyl)-3-(5,5-dimethyl-4H-oxazol-2-yl)-2,6-dimethyl-1H-pyrrolo[2,3-c]pyridin-7-one], the figures for the concentration for half-maximal inhibition (IC50) on TAF1-BD1 and on TAF1-BD2 were 1030 nM and 147 nM, respectively.
Take `Cc1[nH]c2c(=O)n(C)cc(C#CC(C)(C)O)c2c1C(=O)NC(C)C` [Example 169, 4-(3-hydroxy-3-methyl-but-1-ynyl)-N-isopropyl-2,6-dimethyl-7-oxo-1H-pyrrolo[2,3-c]pyridine-3-carboxamide]: the figures for the IC50 on TAF1-BD1 and at TAF1-BD2 were 5310 nM and 2670 nM, respectively.
On the same counts, the results for `Cc1cc([C@](C)(O)C#Cc2cn(C)c(=O)c3[nH]c(C)c(C(=O)OC(C)C)c23)no1` [Example 157, isopropyl 4-[(3R)-3-hydroxy-3-(5-methylisoxazol-3-yl)but-1-ynyl]-2,6-dimethyl-7-oxo-1H-pyrrolo[2,3-c]pyridine-3-carboxylate] are 233 nM and 71.2 nM.
In the case of `CCC(C)(C)OC(=O)c1c(C)[nH]c2c(=O)n(C)cc(C#CC(C)(C)O)c12` [Example 151, 1,1-dimethylpropyl 4-(3-hydroxy-3-methyl-but-1-ynyl)-2,6-dimethyl-7-oxo-1H-pyrrolo[2,3-c]pyridine-3-carboxylate], the half-inhibitory concentration (IC50) at TAF1-BD1 came out at 221 nM; on TAF1-BD2, 35.1 nM.
On the same counts, the results for `CCC(C)(C)OC(=O)c1c(C)[nH]c2c(=O)n(C)cc(C#C[C@@](C)(O)c3cc(C)on3)c12` [Example 139, 1,1-dimethylpropyl 4-[(3R)-3-hydroxy-3-(5-methylisoxazol-3-yl)but-1-ynyl]-2,6-dimethyl-7-oxo-1H-pyrrolo[2,3-c]pyridine-3-carboxylate] are 232 nM and 47.7 nM.
On the same counts, the results for `Cc1cc([C@](C)(O)C#Cc2cn(C)c(=O)c3[nH]c(C)c(-c4nnc(C)o4)c23)no1` [Example 193, 4-[(3R)-3-hydroxy-3-(5-methylisoxazol-3-yl)but-1-ynyl]-2,6-dimethyl-3-(5-methyl-1,3,4-oxadiazol-2-yl)-1H-pyrrolo[2,3-c]pyridin-7-one] are 517 nM and 153 nM.
Take `CCOC(=O)c1c(C)[nH]c2c(=O)n(C)cc(C#CC(O)(CC)CC)c12` [Example 24, ethyl 4-(3-ethyl-3-hydroxy-pent-1-ynyl)-2,6-dimethyl-7-oxo-1H-pyrrolo[2,3-c]pyridine-3-carboxylate]: the IC50 at TAF1-BD1 is 536 nM; at TAF1-BD2 it was 138 nM.
`CCOC(=O)c1c(C)[nH]c2c(=O)n(C)cc(C#C[C@@](C)(O)c3cc(C)no3)c12` [Example 69, ethyl 4-[(3R)-3-hydroxy-3-(3-methylisoxazol-5-yl)but-1-ynyl]-2,6-dimethyl-7-oxo-1H-pyrrolo[2,3-c]pyridine-3-carboxylate]: the IC50 on TAF1-BD1 turned out to be 210 nM; at TAF1-BD2 it was 61 nM.
On to `Cc1[nH]c2c(=O)n(C)cc(C#CC(C)(C)O)c2c1C(=O)OCc1ccccc1CO` [Example 111, [2-(hydroxymethyl)phenyl]methyl 4-(3-hydroxy-3-methyl-but-1-ynyl)-2,6-dimethyl-7-oxo-1H-pyrrolo[2,3-c]pyridine-3-carboxylate], for which the concentration for half-maximal inhibition (IC50) is 259 nM on TAF1-BD1 and 37.9 nM on TAF1-BD2.
On the same counts, the results for `CCOC(=O)c1c(C)[nH]c2c(=O)n(C)cc(C#CC(O)(c3cccc(-c4ccccc4C)c3)C(F)(F)F)c12` (stereo not shown) [Example 102, ethyl 2,6-dimethyl-7-oxo-4-[4,4,4-trifluoro-3-hydroxy-3-[3-(o-tolyl)phenyl]but-1-ynyl]-1H-pyrrolo[2,3-c]pyridine-3-carboxylate] are 7510 nM and 912 nM.
For `Cc1cc([C@](C)(O)C#Cc2cn(C)c(=O)c3[nH]c(C)c(C(=O)OCC(C)C)c23)no1` [Example 158, isobutyl 4-[(3R)-3-hydroxy-3-(5-methylisoxazol-3-yl)but-1-ynyl]-2,6-dimethyl-7-oxo-1H-pyrrolo[2,3-c]pyridine-3-carboxylate], the figures for the IC50 at TAF1-BD1 and on TAF1-BD2 were 112 nM and 50.2 nM, respectively.
On to `Cc1[nH]c2c(=O)n(C)cc(C#CC(C)(O)CC#N)c2c1C(=O)OC(C)C` (stereo not shown) [Example 156, isopropyl 4-(4-cyano-3-hydroxy-3-methyl-but-1-ynyl)-2,6-dimethyl-7-oxo-1H-pyrrolo[2,3-c]pyridine-3-carboxylate], for which the IC50 on TAF1-BD1 was determined as 276 nM; on TAF1-BD2, 106 nM.
On the same counts, the results for `CCOC(=O)c1c(C)[nH]c2c(=O)n(C)cc(C#CC(C)(O)C3CC3)c12` (single isomer, unassigned) [Example 92a, ethyl 4-(3-cyclopropyl-3-hydroxy-but-1-ynyl)-2,6-dimethyl-7-oxo-1H-pyrrolo[2,3-c]pyridine-3-carboxylate] are 154 nM and 33.2 nM.
As for `CC(=O)NCc1nnc(-c2c(C)[nH]c3c(=O)n(C)cc(C#CC(C)(O)C4CC4)c23)o1` (stereo not shown) [Example 174, N-[[5-[4-(3-cyclopropyl-3-hydroxy-but-1-ynyl)-2,6-dimethyl-7-oxo-1H-pyrrolo[2,3-c]pyridin-3-yl]-1,3,4-oxadiazol-2-yl]methyl]acetamide], the IC50 on TAF1-BD1 was determined as 521 nM; on TAF1-BD2, 86.4 nM.
On the same counts, the results for `Cc1[nH]c2c(=O)n(C)cc(C#CC(O)(c3ccccc3)C(F)(F)F)c2c1-c1nnc(C2CC2)o1` (stereo not shown) [Example 180, 3-(5-cyclopropyl-1,3,4-oxadiazol-2-yl)-2,6-dimethyl-4-(4,4,4-trifluoro-3-hydroxy-3-phenyl-but-1-ynyl)-1H-pyrrolo[2,3-c]pyridin-7-one] are 249 nM and 47.1 nM.
In the case of `Cc1[nH]c2c(=O)n(C)cc(C#CC(C)(O)C(C)C)c2c1C(=O)OCC(C)C` (stereo not shown) [Example 128, isobutyl 4-(3-hydroxy-3,4-dimethyl-pent-1-ynyl)-2,6-dimethyl-7-oxo-1H-pyrrolo[2,3-c]pyridine-3-carboxylate], the IC50 on TAF1-BD1 was determined as 253 nM; on TAF1-BD2 it was 62 nM.
On the same counts, the results for `Cc1[nH]c2c(=O)n(C)cc(C#CC(C)(O)C3CC3)c2c1C(=O)OCc1nccs1` (stereo not shown) [Example 109, thiazol-2-ylmethyl 4-(3-cyclopropyl-3-hydroxy-but-1-ynyl)-2,6-dimethyl-7-oxo-1H-pyrrolo[2,3-c]pyridine-3-carboxylate] are 222 nM and 67.9 nM.
Consider `CCOC(=O)c1c(C)[nH]c2c(=O)n(C)cc(C#CC(O)(c3cccc(-c4cn[nH]c4)c3)C(F)(F)F)c12` (stereo not shown) [Example 41, ethyl 2,6-dimethyl-7-oxo-4-[4,4,4-trifluoro-3-hydroxy-3-[3-(1H-pyrazol-4-yl)phenyl]but-1-ynyl]-1H-pyrrolo[2,3-c]pyridine-3-carboxylate], for which the IC50 was 171 nM on TAF1-BD1 and 21.5 nM at TAF1-BD2.
On the same counts, the results for `Cc1[nH]c2c(=O)n(C)cc(C#CC(C)(C)O)c2c1C(=O)OCc1ccccc1` [Example 103, Benzyl 4-(3-hydroxy-3-methyl-but-1-ynyl)-2,6-dimethyl-7-oxo-1H-pyrrolo[2,3-c]pyridine-3-carboxylate] are 151 nM and 34.5 nM.
On the same counts, the results for `Cc1[nH]c2c(=O)n(C)cc(C#CC(C)(C)O)c2c1-c1nnc(C(C)C)o1` [Example 195, 4-(3-hydroxy-3-methyl-but-1-ynyl)-3-(5-isopropyl-1,3,4-oxadiazol-2-yl)-2,6-dimethyl-1H-pyrrolo[2,3-c]pyridin-7-one] are 360 nM and 29.4 nM.
Consider `Cc1ccccc1COC(=O)c1c(C)[nH]c2c(=O)n(C)cc(C#CC(C)(C)O)c12` [Example 121, o-tolylmethyl 4-(3-hydroxy-3-methyl-but-1-ynyl)-2,6-dimethyl-7-oxo-1H-pyrrolo[2,3-c]pyridine-3-carboxylate], for which the IC50 at TAF1-BD1 was determined as 85 nM; on TAF1-BD2 it was 21.5 nM.
On the same counts, the results for `CCOC(=O)c1c(C)[nH]c2c(=O)n(C)cc(C#Cc3cccc(O)c3)c12` [Example 63, ethyl 4-[2-(3-hydroxyphenyl)ethynyl]-2,6-dimethyl-7-oxo-1H-pyrrolo[2,3-c]pyridine-3-carboxylate] are 195 nM and 38.5 nM.

For the origin of these results see patent US10202378B2, “Therapeutic compounds and uses thereof” (GENENTECH, INC., priority 2015, dated 2019).
